# In patent US20130225548A1, “Pyridine Derivative and Medicinal Agent” (NIPPON SHINYAKU CO., LTD., priority 2010, published 2013):
# pIC50: −log10 of the molar value. Structures can show the parent of a compound that is named as a salt.
# Target: T1, Syk tyrosine kinase (Homo sapiens, UniProt P43405)
# T1 construct: purchased Carna Biosciences, Inc
# Test: Test for Syk tyrosine kinase inhibitory activity (ELISA)
# Type: biochemical
# Conditions: Syk tyrosine kinase (Carna Biosciences), 25 μM ATP in substrate solution, 30° C. 1 hour, n=2; read-out: Evaluation (IC50, concentration inhibiting the tyrosine kinase activity at 50%)
# In short: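 Syk kinase (0.025 nM stock before addition) with 625 nM biotinylated peptide and 25 μM ATP (substrate-solution levels) in Tris pH 7.5, MgCl2, DTT; 1 h at 30 °C on streptavidin plates. Phosphotyrosine detected by HRP anti-pTyr antibody, TMB, A450; IC50 by non-linear regression.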
row,Structure (SMILES),pIC50
1,"N#Cc1ccnc(Nc2cc(C3CC3)cc(-c3cncc(NC[C@H]4CCNC4)c3)n2)c1 [Example 97, 2-[(4-cyclopropyl-5′-{[(3S)-pyrrolidin-3-ylmethyl]amino}-2,3′-bipyridin-6-yl)amino]pyridine-4-carbonitrile hydrochloride]",> 8.30
2,"N#Cc1ccnc(Nc2cc(C3CC3)cc(-c3cncc(N4CCCNCC4)c3)n2)c1 [Example 98, 2-{[4-cyclopropyl-5′-(1,4-diazepan-1-yl)-2,3′-bipyridin-6-yl]amino}pyridine-4-carbonitrile hydrochloride]",> 8.30
3,"N#Cc1ccnc(Nc2cc(C3CC3)cc(-c3cncc(OCCN4CCOCC4)c3)n2)c1 [Example 101, 2-({4-cyclopropyl-5′-[2-(morpholin-4-yl)ethoxy]-2,3′-bipyridin-6-yl}amino)pyridine-4-carbonitrile hydrochloride]",6.30 to 7.30
4,"N#Cc1ccnc(Nc2cc(C3CC3)cc(-c3cncc(OC4CNC4)c3)n2)c1 [Example 102, 2-{[5′-(azetidin-3-yloxy)-4-cyclopropyl-2,3′-bipyridin-6-yl]amino}pyridine-4-carbonitrile hydrochloride]",7.30 to 8.30
5,"N#Cc1ccnc(Nc2cc(C3CC3)cc(-c3cnc(N4CCS(=O)(=O)CC4)nc3)n2)c1 [Example 105, 2-({4-cyclopropyl-6-[2-(1,1-dioxidethiomorpholin-4-yl)pyrimidin-5-yl]pyridin-2-yl}amino)pyridine-4-carbonitrile hydrochloride]",6.30 to 7.30
6,"N#Cc1ccnc(Nc2cc(C3CC3)cc(-c3cnc(N4CCCN(C(N)=O)CC4)nc3)n2)c1 [Example 106, 4-(5-{6-[(4-cyanopyridin-2-yl)amino]-4-cyclopropylpyridin-2-yl}pyrimidin-2-yl)-1,4-diazepane-1-carboxamide hydrochloride]",7.30 to 8.30
7,"CN(C)CCOc1cncc(-c2cc(C3CC3)cc(Nc3cc(C#N)ccn3)n2)c1 [Example 107, 2-({4-cyclopropyl-5′-[2-(dimethylamino)ethoxy]-2,3′-bipyridin-6-yl}amino)pyridine-4-carbonitrile hydrochloride]",7.30 to 8.30
8,"CN(C)C(C)(C)COc1cncc(-c2cc(C3CC3)cc(Nc3cc(C#N)ccn3)n2)c1 [Example 108, 2-({4-cyclopropyl-5′-[2-(dimethylamino)-2-methylpropoxy]-2,3′-bipyridin-6-yl}amine)pyridine-4-carbonitrile hydrochloride]",6.30 to 7.30
9,"CC(=O)N1CCCN(c2cncc(-c3cc(C4CC4)cc(Nc4cc(C#N)ccn4)n3)c2)CC1 [Example 110, 2-{[5′-(4-acetyl-1,4-diazepan-1-yl)-4-cyclopropyl-2,3′-bipyridin-6-yl]amino}pyridine-4-carbonitrile hydrochloride]",6.30 to 7.30
10,"N#Cc1ccnc(Nc2cc(C3CC3)cc(-c3cncc(N4CCC[C@H](O)C4)c3)n2)c1 [Example 112, 2-({4-cyclopropyl-5′-[(3S)-3-hydroxypiperidin-1-yl]-2,3′-bipyridin-6-yl}amino)pyridine-4-carbonitrile hydrochloride]",> 8.30
11,"N#Cc1ccnc(Nc2cc(C3CC3)cc(-c3cncc(N4CCC[C@@H](O)C4)c3)n2)c1 [Example 113, 2-({4-cyclopropyl-5′-[(3R)-3-hydroxypiperidin-1-yl]-2,3′-bipyridin-6-yl}amino)pyridine-4-carbonitrile hydrochloride]",7.30 to 8.30
12,"N#Cc1ccnc(Nc2cc(C3CC3)cc(-c3cncc(N4CCNC(=O)C4)c3)n2)c1 [Example 115, 2-{[4-cyclopropyl-5′-(3-oxopiperazin-1-yl)-2,3′-bipyridin-6-yl]amino}pyridine-4-carbonitrile]",> 8.30
13,"CC(C)(O)Cn1cnc2cc(-c3cc(C4CC4)cc(Nc4cc(C#N)ccn4)n3)ccc21 [Example 118, 2-({4-cyclopropyl-6-[1-(2-hyroxy-2-methylpropyl)-1H-benzimidazol-5-yl]pyridin-2-yl}amino)pyridine-4-carbonitrile hydrochloride]",6.30 to 7.30
14,"CC(C)(CO)Cn1cnc2cc(-c3cc(C4CC4)cc(Nc4cc(C#N)ccn4)n3)ccc21 [Example 119, 2-({4-cyclopropyl-6-[1-(3-hydroxy-2,2-dimethylpropyl)-1H-benzimidazol-5-yl]pyridin-2-yl}amino)pyridine-4-carbonitrile hydrochloride]",6.30 to 7.30
15,"CN(C)C(=O)CCn1cnc2ccc(-c3cc(C4CC4)cc(Nc4cc(C#N)ccn4)n3)cc21 [Example 125, 3-(6-{6-[(4-cyanopyridin-2-yl)amino]-4-cyclopropylpyridin-2-yl}-1H-benzimadazol-1-yl)-N,N-dimethylpropanamide hydrochloride]",6.30 to 7.30

# Now from value to compound:
row,pIC50,Structure (SMILES)
1,7.30 to 8.30,"N#Cc1ccnc(Nc2cc(C3CC3)cc(-c3cncc(CNC4CCNCC4)c3)n2)c1 [Example 93, 2-({4-cyclopropyl-5′-[(piperidin-4-ylamino)methyl]-2,3′-bipyridine-6-yl}amino)pyridine-4-carbonitrile hydrochloride]"
2,7.30 to 8.30,"N#Cc1ccnc(Nc2cc(C3CC3)cc(-c3cncc(NCC4CCNCC4)c3)n2)c1 [Example 94, 2-({4-cyclopropyl-5′-[(piperidin-4-ylmethyl)amino]-2,3′-bipyridin-6-yl}amino)pyridine-4-carbonitrile hydrochloride]"
3,> 8.30,"N#Cc1ccnc(Nc2cc(C3CC3)cc(-c3cncc(NC4CNC4)c3)n2)c1 [Example 95, 2-{[5′-(azetidin-3-ylamino)-4-cyclopropyl-2,3′-bipyridin-6-yl]amino}pyridine-4-carbonitrile hydrochloride]"
4,> 8.30,"N#Cc1ccnc(Nc2cc(C3CC3)cc(-c3cncc(OC4CCNCC4)c3)n2)c1 [Example 96, 2-([4-cyclopropyl-5′-(piperidin-4-yloxy)-2,3′-bipyridin-6-yl]amino)pyridine-4-carbonitrile hydrochloride]"
5,> 8.30,"CN1CCC(Oc2cncc(-c3cc(C4CC4)cc(Nc4cc(C#N)ccn4)n3)c2)CC1 [Example 99, 2-({4-cyclopropyl-5′-[(1-methylpiperidin-4-yl)oxy]-2,3′-bipyridin-6-yl}amino)pyridine-4-carbonitrile hydrochloride]"
6,7.30 to 8.30,"N#Cc1ccnc(Nc2cc(C3CC3)cc(-c3cncc(OCCN4CCNCC4)c3)n2)c1 [Example 100, 2-({4-cyclopropyl-5′-[2-(piperazin-1-yl)ethoxy]-2,3′-bipyridin-6-yl}amino)pyridine-4-carbonitrile hydrochloride]"
7,7.30 to 8.30,"N#Cc1ccnc(Nc2cc(C3CC3)cc(-c3cncc(OC4CCN(CC(N)=O)CC4)c3)n2)c1 [Example 103, 2-[4-({6-[(4-cyanopyridin-2-yl)amino]-4-cyclopropyl-2,3′-bipyridin-5′-yl}oxy)-piperidin-1-yl]acetamide hydrochloride]"
8,7.30 to 8.30,"N#Cc1ccnc(Nc2cc(C3CC3)cc(-c3cncc(OC4CCN(C(N)=O)CC4)c3)n2)c1 [Example 104, 4-({6-[(4-cyanopyridin-2-yl)amino]-4-cyclopropyl-2,3′-pypyridin-5′-yl}oxy)piperidine-1-carboxamide hydrochloride]"
9,7.30 to 8.30,"N#Cc1ccnc(Nc2cc(C3CC3)cc(-c3cncc(OCC(N)=O)c3)n2)c1 [Example 109, 2-({6-[(4-cyanopyridin-2-yl)amino]-4-cyclopropyl-2,3′-bipyridin-5′-yl}oxy)acetamide hydrochloride]"
10,7.30 to 8.30,"N#Cc1ccnc(Nc2cc(C3CC3)cc(-c3cncc(N4CCC(O)C4)c3)n2)c1 (centres unmarked) [Example 111, 2-{[4-cyclopropyl-5′-(3-hydroxypyrrolidin-1-yl)-2,3′-bipyridin-6-yl]amino}pyridine-4-carbonitrile hydrochloride]"
11,6.30 to 7.30,"Cn1cc(-c2cncc(-c3cc(C4CC4)cc(Nc4cc(C#N)ccn4)n3)c2)cn1 [Example 114, 2-{[4-cyclopropyl-5′-(1-methyl-1H-pyrazol-4-yl)-2,3′-bipyridin-6-yl]amino}pyridine-4-carbonitrile hydrochloride]"
12,7.30 to 8.30,"N#Cc1ccnc(Nc2cc(C3CC3)cc(-c3cncc(N4CCC(O)CC4)c3)n2)c1 [Example 116, 2-{[4-cyclopropyl-5′-(4-hydroxypiperidin-1-yl)-2,3′-bipyridin-6-yl]amino}pyridine-4-carbontrile hydrochloride]"
13,7.30 to 8.30,"N#Cc1ccnc(Nc2cc(C3CC3)cc(-c3ccc4c(c3)ncn4C(CO)CO)n2)c1 [Example 117, 2-({4-cyclopropy-6-[1-(1,3-dihydroxypropan-2-yl)-1H-benzimidazol-5-yl)]pyridin-2-yl}amino)pyridine-4-carbonitrile hydrochloride]"
14,6.30 to 7.30,"N#Cc1ccnc(Nc2cc(C3CC3)cc(-c3ccc4c(c3)ncn4CC3(O)CCCCC3)n2)c1 [Example 120, 2-[(4-cyclopropyl-6-{1-[(1-hydroxycyclohexyl)methyl]-1H-benzimidazol-5-yl}pyridin-2-yl)amino]pyridine-4-carbonitrile hydrochloride]"
15,6.30 to 7.30,"N#Cc1ccnc(Nc2cc(C3CC3)cc(-c3ccc4c(c3)ncn4CCCO)n2)c1 [Example 121, 2-({4-cyclopropyl-6-[1-(3-hydroxypropyl)-1H-benzimidazol-5-yl]pyridin-2-yl}amino)pyridine-4-carbonitrile hydrochloride]"
16,> 8.30,"N#Cc1ccnc(Nc2cc(C3CC3)cc(-c3ccc4ncn([C@H]5CC[C@H](O)CC5)c4c3)n2)c1 [Example 122, 2-({4-cyclopropyl-6-[1-(trans-4-hydroxycyclohexyl)-1H-benzimidazol-6-yl]pyridin-2-yl}amino)pyridine-4-carbonitrile hydrochloride]"
17,6.30 to 7.30,"CCOC(=O)CCn1cnc2cc(-c3cc(C4CC4)cc(Nc4cc(C#N)ccn4)n3)ccc21 [Example 123, ethyl 3-(5-{6-[(4-cyanopyridin-2-yl)amino]-4-cyclopropylpyridin-2-yl}-1H-benzimidazol-1-yl)propanonate hydrochloride]"
